Here are results for 21 molecules from US10829501B2 (BRISTOL-MYERS SQUIBB COMPANY, priority 2016, dated 2020).

Where a name gives a salt, the structure may show the parent alone. A value given as a limit tells only on which side of the number the result lay.

Sequence of ROCK2 (O75116 whole entry, species assumed): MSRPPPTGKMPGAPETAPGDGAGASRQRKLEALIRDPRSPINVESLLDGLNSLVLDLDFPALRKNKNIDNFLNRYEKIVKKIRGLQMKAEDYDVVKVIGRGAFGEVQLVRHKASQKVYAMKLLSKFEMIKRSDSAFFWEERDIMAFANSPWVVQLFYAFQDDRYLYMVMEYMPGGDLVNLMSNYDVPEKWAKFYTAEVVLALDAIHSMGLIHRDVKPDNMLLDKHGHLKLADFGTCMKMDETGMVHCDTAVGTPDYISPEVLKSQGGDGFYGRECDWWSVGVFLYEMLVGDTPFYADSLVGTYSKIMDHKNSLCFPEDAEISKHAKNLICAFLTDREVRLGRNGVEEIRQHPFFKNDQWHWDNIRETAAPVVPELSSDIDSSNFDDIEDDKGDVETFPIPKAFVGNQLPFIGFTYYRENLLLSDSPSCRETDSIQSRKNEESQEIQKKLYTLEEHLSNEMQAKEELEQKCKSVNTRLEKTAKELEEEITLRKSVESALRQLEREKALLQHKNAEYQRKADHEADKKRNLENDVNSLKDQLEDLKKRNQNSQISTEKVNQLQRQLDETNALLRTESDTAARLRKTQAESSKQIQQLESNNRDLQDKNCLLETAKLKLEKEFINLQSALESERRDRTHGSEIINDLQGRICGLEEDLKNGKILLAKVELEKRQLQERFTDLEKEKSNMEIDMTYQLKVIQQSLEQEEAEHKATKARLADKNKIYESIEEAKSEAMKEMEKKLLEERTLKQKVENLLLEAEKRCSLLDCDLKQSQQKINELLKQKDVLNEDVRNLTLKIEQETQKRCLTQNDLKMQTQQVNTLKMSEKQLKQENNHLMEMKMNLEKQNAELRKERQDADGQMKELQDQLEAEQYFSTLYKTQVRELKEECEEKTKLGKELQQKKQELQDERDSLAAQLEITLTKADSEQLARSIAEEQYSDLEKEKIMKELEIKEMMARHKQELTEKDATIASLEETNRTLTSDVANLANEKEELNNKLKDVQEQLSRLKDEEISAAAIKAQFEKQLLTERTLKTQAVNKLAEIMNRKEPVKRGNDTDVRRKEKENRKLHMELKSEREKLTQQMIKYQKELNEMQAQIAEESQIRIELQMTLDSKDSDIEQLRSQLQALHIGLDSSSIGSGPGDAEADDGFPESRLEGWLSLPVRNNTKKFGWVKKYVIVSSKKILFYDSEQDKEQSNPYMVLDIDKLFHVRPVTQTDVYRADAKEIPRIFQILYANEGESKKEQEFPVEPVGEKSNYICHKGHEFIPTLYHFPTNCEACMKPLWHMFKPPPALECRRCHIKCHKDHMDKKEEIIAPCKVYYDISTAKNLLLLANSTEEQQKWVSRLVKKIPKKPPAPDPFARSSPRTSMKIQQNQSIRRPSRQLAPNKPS

The first assay addresses ROCK2 (Homo sapiens, UniProt O75116). The experiment in a line: ROCK2 kinase inhibition assay (LABCHIP 3000 Reader, FITC peptide substrate).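 Further: rho kinase reaction read by separating phosphorylated from unphosphorylated peptide on chip, with inhibition of kinase activity computed per concentration across a dose-response series.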
Settings: not given
`CC(C)(O)COc1ccc2c(C(=O)NC3CC4(C3)CC(Oc3cc(-c5cccc(/C=C/C(=O)O)c5)ccc3C(N)=O)C4)cnn2c1` (stereo not drawn) [Example 291, (E)-3-(4′-carbamoyl-3′-((6-(6-(2-hydroxy-2-methylpropoxy)pyrazolo[1,5-a]pyridine-3-carboxamido)spiro[3.3]heptan-2-yl)oxy)-[1,1′-biphenyl]-3-yl)acrylic acid] returned an IC50 of 5 to 50 nM.
The same measure, in the same setting: under `NC(=O)c1cccnc1O[C@H]1CC2(C[C@H](NC(=O)c3ccc(-n4cccn4)cc3)C2)C1` (stereo partly drawn) [Example 74, 2-((aR)-6-(4-(1H-pyrazol-1-yl)benzamido)spiro[3.3]heptan-2-yl)oxy) nicotinamide, trifluoroacetate] stands 250 to 2500 nM.
`Cn1cc(-c2ccc3c(C(=O)N[C@H]4CC5(C4)C[C@H](Oc4ncccc4C(N)=O)C5)nn(C(F)F)c3c2)cn1` (stereo partly drawn) [Example 106, N-((aR)-6-((3-carbamoylpyridin-2-yl)oxy)spiro[3.3]heptan-2-yl)-1-(difluoromethyl)-6-(1-methyl-1H-pyrazol-4-yl)-1H-indazole-3-carboxamide, trifluoroacetate] returned an IC50 below 5 nM.
For `Cn1ccc(-c2cc(C#N)cc(C(=O)N[C@H]3CC4(C3)C[C@H](Oc3ncccc3C(N)=O)C4)c2)cc1=O` (stereo partly drawn) [Example 192, 2-(((aR)-6-(3-cyano-5-(1-methyl-2-oxo-1,2-dihydropyridin-4-yl)benzamido)spiro[3.3]heptan-2-yl)oxy)nicotinamide, trifluoroacetate], the IC50 lay within 5 to 50 nM.
On the same count and under the same terms, the value for `[H][C@]1(Oc2ncccc2C(N)=O)C[C@@]2(C[C@H](NC(=O)c3nn(CC(C)(C)O)c4ccc(-c5cnn(C)c5)cc34)C2)C1` (stereo partly drawn) [Example 50, N-((aR)-6-((3-carbamoylpyridin-2-yl)oxy)spiro[3.3]heptan-2-yl)-1-(2-hydroxy-2-methylpropyl)-5-(1-methyl-1H-pyrazol-4-yl)-1H-indazole-3-carboxamide] was 5 to 50 nM; that for `[H][C@]1(Oc2ncccc2C(N)=O)C[C@@]2(C[C@H](NC(=O)c3cnc4c(OC)cc(Cl)nn34)C2)C1` (stereo partly drawn) [Example 60, N-((aR)-6-((3-carbamoylpyridin-2-yl)oxy)spiro[3.3]heptan-2-yl)-6-chloro-8-methoxyimidazo[1,2-b]pyridazine-3-carboxamide] was 250 to 2500 nM.
For the molecule `NC(=O)c1cccnc1O[C@H]1CC2(C[C@H](NC(=O)c3cnc4cc(N5CCOCC5)ccn34)C2)C1` (stereo partly drawn) [Example 356, N-((aR)-6-((3-carbamoylpyridin-2-yl)oxy)spiro[3.3]heptan-2-yl)-7-morpholinoimidazo[1,2-a]pyridine-3-carboxamide], the IC50 is 5 to 50 nM.
On the same count and under the same terms, under `NC(=O)c1cccnc1O[C@H]1CC2(C[C@H](NC(=O)c3ccc4[nH]c(=O)c(=O)[nH]c4c3)C2)C1` (stereo partly drawn) [Example 151, N-((aR)-6-((3-carbamoylpyridin-2-yl)oxy)spiro[3.3]heptan-2-yl)-2,3-dioxo-1,2,3,4-tetrahydroquinoxaline-6-carboxamide, trifluoroacetate] stands 250 to 2500 nM.
On the same count and under the same terms, under `CC(C)(O)COc1ccc2c(C(=O)NC3CC4(C3)CC(Oc3cc(N5CCOCC5)ccc3C(N)=O)C4)cnn2c1` (stereo not drawn) [Example 230, N-(6-(2-carbamoyl-5-morpholinophenoxy)spiro[3.3]heptan-2-yl)-6-(2-hydroxy-2-methylpropoxy)pyrazolo[1,5-a]pyridine-3-carboxamide] stands 50 to 250 nM.
Still for that read-out and setting: the value for `[H][C@]1(Oc2ncccc2C(N)=O)C[C@@]2(C[C@H](NC(=O)c3cn4nc(OC)ccc4n3)C2)C1` (stereo partly drawn) [Example 59, N-((aR)-6-((3-carbamoylpyridin-2-yl)oxy)spiro[3.3]heptan-2-yl)-6-methoxyimidazo[1,2-b]pyridazine-2-carboxamide] was 250 to 2500 nM; that for `Cn1cc(-c2ccn3c(C(=O)N[C@H]4CC5(C4)C[C@H](Oc4ncccc4C(N)=O)C5)cnc3c2)cn1` (stereo partly drawn) [Example 337, N-((aR)-6-((3-carbamoylpyridin-2-yl)oxy)spiro[3.3]heptan-2-yl)-7-(1-methyl-1H-pyrazol-4-yl)imidazo[1,2-a]pyridine-3-carboxamide] was 5 to 50 nM; that for `N#Cc1cc(F)cc(C(=O)N[C@H]2CC3(C2)C[C@H](Oc2ncccc2C(N)=O)C3)c1` (stereo partly drawn) [Example 157, 2-(((aR)-6-(3-cyano-5-fluorobenzamido)spiro[3.3]heptan-2-yl)oxy) nicotinamide] was 50 to 250 nM.
On to `CC(C)(O)COc1ccc2c(C(=O)N[C@H]3CC4(C3)C[C@H](Oc3ncccc3C(N)=O)C4)cnn2c1` (stereo partly drawn) [Example 64, N-((aR)-6-((3-carbamoylpyridin-2-yl)oxy)spiro[3.3]-heptan-2-yl)-6-(2-hydroxy-2-methylpropoxy) pyrazolo-[1,5-a]pyridine-3-carboxamide, trifluoroacetate], for which the half-maximal inhibitory concentration (IC50) lay within 5 to 50 nM.
Same read-out and setting: under `N#Cc1ccc(F)c(C(=O)N[C@H]2CC3(C2)C[C@H](Oc2ncccc2C(N)=O)C3)c1` (stereo partly drawn) [Example 155, 2-(((aR)-6-(5-cyano-2-fluorobenzamido)spiro[3.3]heptan-2-yl)oxy)nicotinamide] stands 250 to 2500 nM.
In the case of `COc1ccc(CCc2ccccc2C(=O)N[C@H]2CC3(C2)C[C@H](Oc2ncccc2C(N)=O)C3)cc1` (stereo partly drawn) [Example 143, 2-(((aR)-6-(2-(4-methoxyphenethyl)benzamido)spiro[3.3]heptan-2-yl)oxy)nicotinamide, trifluoroacetate], the IC50 fell in the range of 250 to 2500 nM.
Molecule `CC(C)(O)COc1ccc2c(C(=O)NC3CC4(C3)CC(Oc3nccnc3C(N)=O)C4)cnn2c1` (stereo not drawn) [Example 7, N-(6-((3-carbamoylpyrazin-2-yl)oxy)spiro[3.3]heptan-2-yl)-6-(2-hydroxy-2-methylpropoxy)pyrazolo[1,5-a]pyridine-3-carboxamide] had an IC50 of 250 to 2500 nM.
As to `CC(C)(O)COc1ccc2c(C(=O)NC3CC4(C3)CC(Oc3cc(-c5cc(C(=O)O)cc(C(=O)O)c5)ccc3C(N)=O)C4)cnn2c1` (stereo not drawn) [Example 255, 4′-carbamoyl-3′-((6-(6-(2-hydroxy-2-methylpropoxy)pyrazolo[1,5-a]pyridine-3-carboxamido)spiro[3.3]heptan-2-yl)oxy)-[1,1′-biphenyl]-3,5-dicarboxylic acid], the IC50 was 5 to 50 nM.
Same read-out and setting: under `Cc1ccn2c(C(=O)N[C@H]3CC4(C3)C[C@H](Oc3ncccc3C(N)=O)C4)cnc2c1` (stereo partly drawn) [Example 335, N-((aR)-6-((3-carbamoylpyridin-2-yl)oxy)spiro[3.3]heptan-2-yl)-7-methylimidazo[1,2-a]pyridine-3-carboxamide] stands 5 to 50 nM.

Still in this assay, the particulars now being: read-out: ROCK2 Activity (ROCK2 IC50); 5 μM ATP, 1.5 μM peptide substrate, pH 7.5.
On to `CC(C)(CN)Oc1ccc2c(C(=O)NC3CC4(C3)CC(Oc3ncccc3C(N)=O)C4)nc(C(F)F)n2c1` [Example 443, 6-((1-amino-2-methylpropan-2-yl)oxy)-N-((aR)-6-((3-carbamoylpyridin-2-yl)oxy)spiro[3.3]heptan-2-yl)-3-(difluoromethyl)imidazo[1,5-a]pyridine-1-carboxamide], for which the IC50 fell in the range of 250 to 2500 nM.
Still for that read-out and setting: the value for `NC(=O)c1cccnc1OC1CC2(CC(NC(=O)c3nc(C(F)(F)F)n4ccccc34)C2)C1` [Example 430, N-((aR)-6-((3-carbamoylpyridin-2-yl)oxy)spiro[3.3]heptan-2-yl)-3-(trifluoromethyl)imidazo[1,5-a]pyridine-1-carboxamide] was 5 to 50 nM.
As for “2-((aR)-6- (1-phenyl-1H- pyrazole-4- carboxamido) spiro[3.3]- heptan-2-yl)oxy) nicotinamide, trifluoroacetate [Example 73]”, the IC50 fell in the range of 5 to 50 nM.

In general, IC50 refers to the concentration needed to halve the response being measured.
